# Measured values: a melting point compilation (Tetko et al.; mined from patent text by program, amines drawn as free bases though some values may be those of a salt)
row,melting point [°C],Compound
1,38 to 39,CCCCCCCCCCCCCCC(=O)C(=O)N[C@@H](CCCC)C(=O)NCC(=O)OC(C)(C)C
2,141 to 143,CC(=O)OCCC(C(N)=O)C1(C)OCCc2c1[nH]c1ccccc21 (stereo not given)
3,247 to 249,COC(=O)Nc1cn2cc(Sc3ccccc3)ccc2n1
4,185 to 187,CCOc1nc2cc(N)ccc2c(=O)o1
5,75 to 84,Cc1cc2c(s1)Nc1ccccc1N=C2N1CCN[C@@H](CCc2ccccc2)C1
6,93,CCOC(=O)C(C(N)=O)c1cc(OC)c(OC)c(OC)c1 (stereo not given)
7,126 to 129,Cc1cc(OCc2ccccc2)ccc1C(=O)O
8,193 to 195,CC(=O)NC[C@H]1CN(c2ccc(C(=O)c3cnc4c(OCc5ccccc5)cccn34)cc2)C(=O)O1
9,241 to 243,O=C(O)c1cc(/C=C/c2ccc(O)cc2)ccc1O
10,123 to 124,CC(C)(C)c1cc(C(=O)COc2ccc(C(=O)OCc3ccccc3)c(O)c2)cc(C(C)(C)C)c1O
11,69 to 71,Cc1cc(Oc2c(Cl)cc(C(F)(F)F)cc2Cl)nn1C(=S)NCC1CCCO1 (stereo not given)
12,159 to 162,Cc1nc(-n2cc(CNc3ccccc3)nn2)sc1C(=O)NCc1ccccc1
13,298,NS(=O)(=O)c1cc(NC(=O)c2cnn3c(C(F)F)cc(-c4ccc(C(F)(F)F)cc4)nc23)c(Cl)s1
14,> 200,O=C(O)C1CC(=C2CCN(c3ccccc3)C2=O)c2ccc(Cl)cc2N1 (stereo not given)
15,280 to 282,CCOC(=O)CCc1ccc2c(c1)c(-c1cc3cccnc3n1S(=O)(=O)c1ccc(C)cc1)cn2C
16,78 to 79,CCCNON=C(C)C1=CCCN(C)C1
17,140 to 141,CC1(C)OC(c2ccc(S(C)(=O)=O)cc2)=C(c2cc3ccccc3o2)C1=O
18,139 to 141,CCOc1ccc(C(=O)CCC(=O)O)c(OCC)c1
19,221 to 222,CC(C)n1c(=O)ccc2cnc(Nc3ccc(N4CCN(C)CC4)cc3)nc21
20,230 to 235,COc1cc2cc3c(Nc4ccc(Sc5nccn5C)c(Cl)c4)c(C#N)cnc3cc2cc1OCCCN1CCOCC1
21,156,COc1ccc(CN(C)CCCCc2ccc(NC(=O)c3cccc4c(=O)c5ccccc5sc34)cc2)cc1OC
22,150,COc1cccc(Oc2ccc3ccc(-c4cc(OC)ccc4C(N)=O)nc3n2)c1
23,169 to 171,Cc1cncn1-c1cc(NC(=O)OC(C)(C)C)cc(C(F)(F)F)c1

row,melting point [°C],Compound
1,86 to 87,CCOC(=O)C1C(=O)CC(=O)CC1c1ccccc1 (stereo not given)
2,49 to 50,CN(C)c1c(Cl)nc(-c2ccccc2)nc1Cl
3,185,CCc1ccc2c(c1)C=Cc1cc(C)ccc1C2c1cn(-c2ccnc(N3CCCC3C(=O)O)n2)c(=O)[nH]c1=O (stereo not given)
4,121 to 122,O=C(O)COc1ccc(SCc2cccc(OCc3ccc(Cl)c(C(F)(F)F)c3)c2)c2c1CCC2
5,123 to 124,COc1ccc(CN2CC(NC(=O)c3ccc(OCC=C(C)CCC=C(C)C)cc3)CN2Cc2ccc(OC)cc2)cc1
6,157,COc1ccc(S(=O)(=O)c2ncn(-c3ccccc3)c2-c2ccccc2)cc1
7,56 to 58,CCCCCCCCCCCCCCCCCCOc1cc(OCCCOc2ccc(C(C)(C)C)cc2)cc(N(CC(=O)OC)CC(=O)OC)c1
8,160 to 161,COc1ccc(CN(C)CCc2ccc(NC(=O)c3cccc4c(=O)c5cccc(C)c5[nH]c34)c(C)c2)cc1OC
9,216 to 218,CC(=O)N1CCC2(CC1)CN=C(c1cc3cccc(N(C)S(=O)(=O)c4cccs4)c3[nH]1)S2
10,186 to 188,COc1cc(C)nc(NC(=S)NS(=O)(=O)c2ccccc2Cl)n1
11,196,Cc1[nH]c(=S)n(Nc2cccc(Cl)c2)c1-c1cccc(Br)c1
12,136 to 140,CCOC(=O)C(OC(C)=O)c1ccc(-c2ccc(-c3ccccc3)cc2)o1 (stereo not given)
13,137 to 140,Cc1c(COc2ccc(-c3ccc(S(=O)(=O)NC(C(=O)O)C(C)C)cc3)cc2)oc2ccc(Br)c(OC(C)C)c12 (stereo not given)
14,115 to 116,CC(=O)OCC1OC(CCOS(C)(=O)=S)C(OC(C)=O)C(OC(C)=O)C1OC(C)=O (stereo not given)
15,122 to 126,COCCC1(C(=O)N[C@@H](Cc2ccc(N3C(=O)c4cccc(C#N)c4C3=O)cc2)C(=O)OC)CCCC1
16,84 to 85.5,CCCCCCCCCCCCCCC(COC(C)=O)(COC(C)=O)NC(C)=O
17,142 to 144,O=C(CC(=O)C1CC1)c1ccc2snnc2c1
18,228 to 229,Cc1nc(C)c2c(n1)N(Cc1ccc(-c3ccccc3-c3nnn[nH]3)cc1)C(=O)C2
19,63 to 64,CC/C(=C\CCC(O)(CC)CC)c1cc(COc2ccc(CO)c(CO)c2)cs1
20,120 to 122,O=CC(=O)c1ccccc1
21,133 to 135,CC1Nc2cc(Br)ccc2NC1=O (stereo not given)
22,52 to 53,Clc1cc(Cl)cc(N=Cc2ccccc2)c1
23,125 to 135,Cc1noc(NS(=O)(=O)c2ccccc2-c2ccc(-c3ncco3)cc2CN(C)C(=O)c2cccc(F)c2)c1C

row,melting point [°C],Compound
1,141 to 143,CCCC12CCC3c4ccc(OC)cc4CCC3C1CCC2O (stereo not given)
2,152 to 157,CCOC(=O)c1cc2ccnc(Cl)c2[nH]1
3,90 to 92,COc1cc(C)c(C=CC(C)=CC=O)cc1C
4,212 to 213,CCC(=O)c1[nH]c(=O)[nH]c1CC
5,112 to 114,COC(=O)C(CCCN(C)CCc1ccc(OC)c(OC)c1)c1ccc(OC)c(OC)c1 (stereo not given)
6,70 to 71,O=S(CCc1ccccc1)CCc1ccccc1
7,165 to 169,COC(=O)NCCc1ccc(C(=O)OC)c(S(=O)(=O)NC(=O)Nc2nc(OC)cc(OC)n2)c1
8,135 to 138,COc1ccc(COc2cccnc2N)c(F)c1
9,144 to 145,CC(C)(C)OC(=O)N1CCC[C@H]1Cn1ccc2c3ccn(Cc4ccc(F)cc4)c(=O)c3ccc21
10,166 to 168,O=C1CC[N+]([O-])=C(c2ccccc2F)c2cc(Cl)ccc21
11,105 to 109,Nc1c(Cl)ccc2c1NCCC2=O
12,67 to 70,Fc1cccc(NC2CN([C@H]3CC[C@@H](c4c[nH]c5ccc(F)cc54)CC3)C2)c1
13,> 300,COc1ccc(-n2c(=O)c(Cl)nc3cccnc32)cc1
14,228,O=c1[nH][nH]c(=O)c2c(O)c3ccc(F)cc3nc12
15,158,COc1ccc(OC)c(C(=O)c2oc3ccccc3c2O)c1
16,144 to 145,Cc1ccc2nc(C)c(=O)n(-c3ccc(Cl)cc3)c2c1
17,138 to 139,CCOC(=O)c1cc2cc(C#N)ccc2s1
18,60 to 62,OC1CN(CCCOCCc2ccc3sccc3c2)C1
19,117 to 122,NC(=O)N1CCC[C@@H]1C#CCN1CCCC1
20,152 to 154,CCc1sc2ncccc2c1S(=O)(=O)Nc1onc(C)c1Cl
21,122 to 129,COCCOc1cc(NC(=O)OC(C)(C)C)c(NC(=O)CC(=O)c2cccc(-n3ccnc3)c2)cc1C#Cc1ccccc1
22,60 to 61,CC(NC(=O)CBr)c1ccccc1 (stereo not given)
23,138 to 140,CC(C)(C)OC(=O)N1CC(CCl)c2c1ccc1ccc(C#N)cc21 (stereo not given)

row,melting point [°C],Compound
1,155 to 157,O=C1CCc2c(-c3ccc(F)cc3)sc(-c3ccncc3)c21
2,90,CCOC(=O)c1cc(F)cnc1NCc1ccc(OC)cc1
3,101 to 102,O=C1C2CCCC2=Nc2ccccc2N1CCc1ccccc1 (stereo not given)
4,183 to 185,CC1CCC(c2ccc(OCC(=O)O)c(Cl)c2Cl)=CC1=O (stereo not given)
5,235 to 236,Cc1nc2ccc(C(=O)O)[nH]c-2c1Cc1ccc(Cl)cc1Cl
6,132 to 133,CC(C(=O)O)N1CCC(C)(CS)C1=O (stereo not given)
7,169 to 171,COc1ccc(Cn2nc(COC(C)(C)C(=O)O)c3ccccc32)cc1
8,105 to 109,O=C(CI)N1CCN(C(=O)CI)CC1
9,168 to 169,O=S(=O)(c1ccc(Cn2cnnn2)cc1)C1CCN(CCc2ccc(F)cc2F)CC1
10,123 to 124,CC(=O)Nc1c(N(C)C)cnn(C)c1=O
11,70,c1ccc(OCCSCc2nnc(-c3ccc(OCCN4CCCCC4)cc3)o2)cc1
12,205 to 210,CN(C)CCOc1ccc2[nH]c(C(=O)N3CC(CCl)c4c3cc([N+](=O)[O-])c3cc(S(=O)(=O)NCCO)ccc43)cc2c1 (stereo not given)
13,269 to 271,O=c1[nH]c2cc(Cl)ccc2c(O)c1-c1cccc(Oc2ccccn2)c1
14,98 to 100,O=C(c1cnccn1)N1CCCC(c2ccccc2)=N1
15,139 to 140,COC(=O)c1oc2cc(OCc3nc(-c4ccccc4)oc3C)ccc2c1-c1ccccc1
16,93 to 96,CC(COc1ccc(CCO)cc1)NCC(O)c1ccccc1 (stereo not given)
17,113 to 114,CCOC(=O)c1cn(Cc2ccc(OCc3nc(-c4ccccc4)oc3C)cc2)nc1-c1cccs1
18,210,Cc1ccc2c(c1)C=Cc1cc(C)ccc1C2c1cn(Cc2ccc(C(=O)Nc3nc(CC(=O)O)cs3)o2)c(=O)[nH]c1=S
19,94.5 to 96.1,Cc1ccc([N+](=O)[O-])c(C)c1CO
20,158 to 161,CCCc1nc2c(N)nc(Cl)c(C)c2n1CCOCCN
21,89 to 90,CCCCCCCCCCCCCCCCCCNC(=O)c1ccccc1N
22,71 to 73,CCOC(=O)c1cn2c3c(cccc3c1=O)C1CCCCC12 (stereo not given)
23,169 to 171,CN(C)C(=O)NCc1cccc2c1CN(C1CCC(=O)NC1=O)C2=O (stereo not given)

row,Compound,melting point [°C]
1,CCC(=O)Nc1nc(CN2CCC(c3c[nH]c4ccccc34)CC2)cs1,192 to 195
2,CCOC(=O)C1=C(N2CC2C(N)=O)CCCC1 (stereo not given),101 to 104
3,CNC(=O)N1N=C(c2ccc([N+](=O)[O-])c(C)c2)c2cc3c(cc2C=C1C)OCO3,246 to 248
4,NC(=S)c1ncn2c1[C@@H]1CCCN1C(=O)c1c(Cl)cccc1-2,247 to 248
5,NC(=O)CSC(c1ccccc1)c1ccccc1,104 to 110
6,CC(CC(C)(C)OOC(=O)NC1CCCCC1)OC(=O)NC1CCCCC1 (stereo not given),224 to 226
7,O=C1c2ccccc2C(Nc2ccccn2)N1CCCN1CC=C(c2ccccc2)CC1 (stereo not given),153
8,CCN1CCCC1c1cccc(OC(=O)NC)c1 (stereo not given),67 to 69
